The test system of one data set is MEC-1 cell line. Briefly: 96-hour CTG cytotoxicity assay on MEC-1. It is filed as cell-based, human. The settings on record: 96-hour CTG assay. Here is the method: (§1) FIG. 16. Results of cytotoxicity studies on (A) MEC-1-, (B) MEC-2-, (C) Raji-, (D) Nalm-6-, and (E) Ramos cell lines, respectively, using the obinutuzumab amatoxin conjugates Obi-30.1699 and Obi-30.2115 in a 96-hour CTG assay in comparison to unconjugated α-amanitin.
(§2) Results are depicted in FIG. 14.
(§3) Results are depicted in FIG. 15.
(§4) Cytotoxic activities of the obinutuzumab amatoxin conjugates Obi-30.1699 and Obi-30.2115 were assessed in vitro on MEC-1, MEC-2, Raji, Nalm-6, and Ramos cell lines, respectively, using a 96-hour CTG assay, in comparison to unconjugated α-amanitin. Results are depicted in FIG. 16.

A further data set relates to MEC-2 cell line. Briefly: 96-hour CTG cytotoxicity assay on MEC-2. It counts as cell-based, human. The settings on record: 96-hour CTG assay. Here is the method: as §1, §2, §3, §4
Another data set has as its system Raji cell line. Briefly: 96-hour CTG cytotoxicity assay on Raji. It counts as cell-based, human. The conditions noted are these: 96-hour CTG assay. Here is the method:
as §1, §3, §4

The test system of data set [1] is Nalm-6 cells (CD20-negative). The data set is described as follows: 96-hour CTG cytotoxicity assay on Nalm-6. It is filed as cell-based. The settings on record: 96-hour CTG assay. Here is the method:
as §1, §3, §4

The test system of the next data set is Ramos cell line. The data set is described as follows: 96-hour CTG cytotoxicity assay on Ramos. It is filed as cell-based. The conditions noted are these: 96-hour CTG assay. Here is the method:
as §1, §3, §4

The target in a further data set is RNA-polymerase II (Homo sapiens, UniProt P24928). The settings on record: read-out: KD of complex with RNA-polymerase II; cited from earlier work.

As to `CC[C@H](C)[C@@H]1NC(=O)CNC(=O)[C@@H]2Cc3c([nH]c4cc(O)ccc34)[S+]([O-])C[C@@H](NC(=O)CNC1=O)C(=O)N[C@@H](CC(N)=O)C(=O)N1C[C@H](O)C[C@H]1C(=O)N[C@@H]([C@@H](C)[C@@H](O)CO)C(=O)N2` (stereo in doubt) [α-amanitin, reference compound], the “Cytotoxic effect on MEC-1 (in words)” value in the data set on MEC-1 cell line is “cytotoxic effects on all cell lines only in the millimolar range”. In addition, the “Cytotoxic effect on MEC-2 (in words)” value in the data set on MEC-2 cell line is “cytotoxic effects on all cell lines only in the millimolar range”. In addition, the “Cytotoxic effect on Raji (in words)” value with Raji cell line is “cytotoxic effects on all cell lines only in the millimolar range”. Also, in data set [1], the “Cytotoxic effect on Nalm-6 (in words)” value is given as “cytotoxic effects on all cell lines only in the millimolar range”. Besides, the “Cytotoxic effect on Ramos (in words)” value with Ramos cell line was “cytotoxic effects on all cell lines only in the millimolar range”. The dissociation constant Kd (usually a measure of binding affinity in units of concentration) on RNA-polymerase II was 3 nM.
